Data reported in US8697145B2, “Substances having body mass redistribution properties” (Horizon Science Pty. Ltd., priority 2005, dated 2014).
Blank lines part the entries; values can stand above or below the compound they belong to.

Assays:
Sprague Dawley rats = test: Body mass distribution of rats on high fat diet with tea treatments (DEXA); format: in vivo; details: at 11 and 18 weeks, vs water control
Text: Animals and treatments: Male Sprague Dawley rats (n=48) were purchased from the Animal Resource Centre (Canning Vale, WA) at 3 weeks of age. Animals were allowed to acclimate for 1 week on Purina rat chow and water. From 4 weeks of age, all animals were provided with a semi-synthetic, high fat diet (15% fat, Table 6) (Specialty Feeds, Glen Forrest, WA) and administered one of four fluid treatments: Green Tea, Black Tea, Epigallocatechin Gallate (EGCG) or water. Tea and tea extracts were given as 100% of their fluid intake. Rats were maintained on the high fat diet and tea treatment until week 29. Food and fluid intakes were measured daily and body weights recorded weekly.
Green and Black tea: Green and Black tea bags (Dilmah Natural Green Tea™ and Dilmah Black Tea™) were purchased from a local retail outlet. Ten tea bags (approximately 2 g tea leaves/bag) were steeped in 1 liter of boiling tap water in a covered container for 3 minutes. Tea bags were then expelled of excess tea and the tea preparations made up to a 2 liter volume with cold tap water. This approximated to 1 tea bag per 200 ml of water. […]
Dual Energy X-ray Absorptiometry (DEXA): Body composition was determined by dual energy x-ray absorptiometry using a Hologic QDR-4000/W Absorptiometer. […] Fat, lean and total mass was measured, along with the percentage fat ratio and bone mineral content. […]

rats = details: treated rats (Zorad et al. 1995); cited from earlier work
α-glucosidase = test: α-Glucosidase inhibition assay; format: biochemical
Procedure: α-Glucosidase: Molasses powder sample was solubilized in water prior to use in this assay. Fucoidan was included as a positive control, and was also solubilized in water.
Glucosidase enzyme was solubilized in acetate buffer (50 mM, pH 4.5) at a concentration of 0.7 mg/mL. This provided a final concentration of 0.2 U/mL. To a 96-well plate, 50 μL of enzyme was added to each well. A corresponding set of wells was also included, in which acetate buffer was added instead of enzyme. Sample/controls were then added to the wells (5 μL), in triplicate, followed by the substrate 4-Nitrophenyl-α-D-glucopyranoside (final concentration 2 mM). The plate was covered, shaken and then incubated at 37° C. for 30 minutes. The reaction was stopped with the addition of 0.2 M Na2CO3 (100 μL/well). Absorbance was measured at 405 nm, using a Victor^2 plate reader.
The absorbance of the wells containing sample, substrate, and buffer were subtracted from the corresponding wells containing the glucosidase enzyme and the percent inhibition by the samples was calculated compared to the solvent controls.

Compound: O=C(O[C@@H]1Cc2c(O)cc(O)cc2O[C@@H]1c1cc(O)c(O)c(O)c1)c1cc(O)c(O)c(O)c1 [EGCG, (−)-epigallocatechin-3-gallate]
grams of lean mass (Sprague Dawley rats): significantly higher

Compound: CCCCc1nc(Cl)c(CO)n1Cc1ccc(-c2ccccc2-c2nn[nH]n2)cc1 [losartan]
adipocyte size (rats): reduction

IC50 (α-glucosidase) (α-glucosidase): 14 µg/mL | % Inhibition of α-glucosidase (α-glucosidase; 4.7 μg/mL): 5.7 ± 3.1% | % Inhibition of α-glucosidase (α-glucosidase; 9.4 μg/mL): 19.3 ± 2.7% | % Inhibition of α-glucosidase (α-glucosidase; 18.8 μg/mL): 73.5 ± 7.5% | % Inhibition of α-glucosidase (α-glucosidase; 37.5 μg/mL): 97.4 ± 5.9%
Compound: Fucoidan
